Reference: PubChem BioAssay AID1259411 (Chemical Carcinogenesis Research Information System (CCRIS), 2018)
Calls of active or inactive are those of the source. How the calls were made is not given here.

Tested on: rodent carcinogenicity bioassays, tumor incidence
Assay: CCRIS carcinogenicity studies
How it was run: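 NCI-built, expert-reviewed records of carcinogenicity and related test outcomes (mutagenicity, tumor promotion/inhibition) compiled from published and report sources, historical span 1985-2011, not updated.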

## C[C@H](CCC(=O)N(CCS(=O)(=O)O)N=O)[C@H]1CCC2C3C(C[C@H](O)[C@@]21C)[C@@]1(C)CC[C@@H](O)C[C@H]1C[C@H]3O (stereo partly specified)
Species: RAT, Strain/Sex: F344/MALE, Route: GAVAGE, Dose: 0, 10 MG IN 50 µL DMSO 5 D/WK FOR 6 WK (STUDY DURATION: 108 WK), Tumor Site: Type of Lesion: LIVER: CARCINOMA
  carcinogen call: active; positive

## COc1cccc2c1cc([N+](=O)[O-])c1c(C(=O)O)cc3c(c12)OCO3
Species: RAT, Strain/Sex: SPRAGUE-DAWLEY/FEMALE, Route: ORAL, GAVAGE, Dose: 50 MG/KG BW/D FOR 3 D (STUDY DURATION: 6 MO), Tumor Site: Type of Lesion: KIDNEY: TUMORS, 29% (THERE WERE 3 MESENCHYMAL TUMORS AND 1 RENAL ONCOCYTOMA IN 14 ANIMALS)
  carcinogen call: active; positive

## [Cl][Hg][Cl]
Species: MOUSE, Strain/Sex: B6C3F1/FEMALE, Route: GAVAGE, Dose: 0, 5, 10 MG/KG IN DEIONIZED WATER 5 D/WK FOR 103-104 WK (STUDY DURATION: 104 WK), Dose: 0, 5, 10 MG/KG IN DEIONIZED WATER 5 D/WK FOR 103-104 WK (STUDY DURATION: 104 WK)
  carcinogen call: inactive; negative
Species: MOUSE, Strain/Sex: B6C3F1/MALE, Route: GAVAGE, Dose: 0, 5, 10 MG/KG IN DEIONIZED WATER 5 D/WK FOR 103-104 WK (STUDY DURATION: 104 WK), Dose: 0, 5, 10 MG/KG IN DEIONIZED WATER 5 D/WK FOR 103-104 WK (STUDY DURATION: 104 WK), Tumor Site: Type of Lesion: KIDNEY (RENAL TUBLE): ADENOMA, ADENOCARCINOMA
  carcinogen call: equivocal
Species: MOUSE, Strain/Sex: SWISS/FEMALE, Route: ORAL, Dose: 0, 5 PPM (HG) IN DRINKING WATER FOR DURATION OF STUDY (STUDY DURATION: LIFE SPAN)
  carcinogen call: inactive; negative
Species: MOUSE, Strain/Sex: SWISS/MALE, Route: ORAL, Dose: 0, 5 PPM (HG) IN DRINKING WATER FOR DURATION OF STUDY (STUDY DURATION: LIFE SPAN)
  carcinogen call: inactive; negative
Species: RAT, Strain/Sex: F344/FEMALE, Route: GAVAGE, Dose: 0, 2.5, 5 MG/KG IN DEIONIZED WATER 5 D/WK FOR 103-104 WK (STUDY DURATION: 104 WK), Dose: 0, 2.5, 5 MG/KG IN DEIONIZED WATER 5 D/WK FOR 103-104 WK (STUDY DURATION: 104 WK), Tumor Site: Type of Lesion: FORESTOMACH: SQUAMOUS CELL PAPILLOMA
  carcinogen call: equivocal
Species: RAT, Strain/Sex: F344/MALE, Route: GAVAGE, Dose: 0, 2.5, 5 MG/KG IN DEIONIZED WATER 5 D/WK FOR 103-104 WK (STUDY DURATION: 104 WK), Dose: 0, 2.5, 5 MG/KG IN DEIONIZED WATER 5 D/WK FOR 103-104 WK (STUDY DURATION: 104 WK), Tumor Site: Type of Lesion: THYROID GLAND: FOLLICULAR CELL CARCINOMA, FOLLICULAR CELL CARCINOMA OR ADENOMA, FORESTOMACH: SQUAMOUS CELL PAPILLOMA
  carcinogen call: active; positive

## CC(/C=C/C=C(\C)C(=O)O[C@@H]1O[C@H](CO[C@@H]2O[C@H](CO)[C@@H](O)[C@H](O)[C@H]2O)[C@@H](O)[C@H](O)[C@H]1O)=C\C=C\C=C(C)\C=C\C=C(/C)C(=O)O[C@@H]1O[C@H](CO[C@@H]2O[C@H](CO)[C@@H](O)[C@H](O)[C@H]2O)[C@@H](O)[C@H](O)[C@H]1O
Species: MOUSE, Strain/Sex: C57BL/FEMALE, Route: ORAL, Dose: 0, 0.2, 0.8% IN DRINKING WATER FOR 95 WK (STUDY DURATION: 95 WK), Dose: 0, 0.2, 0.8% IN DRINKING WATER FOR 95 WK (STUDY DURATION: 95 WK)
  carcinogen call: inactive; negative
Species: MOUSE, Strain/Sex: C57BL/MALE, Route: ORAL, Dose: 0, 0.2, 0.8% IN DRINKING WATER FOR 95 WK (STUDY DURATION: 95 WK), Dose: 0, 0.2, 0.8% IN DRINKING WATER FOR 95 WK (STUDY DURATION: 95 WK)
  carcinogen call: inactive; negative

## O=C(O)c1nn(Cc2ccc(Cl)cc2Cl)c2ccccc12
Species: RAT, Strain/Sex: SPRAGUE-DAWLEY/FEMALE, Route: ORAL, Dose: 0, 20, 60, 180 MG/KG/D IN DIET FOR 2 YR (STUDY DURATION: 2 YR), Dose: 0, 20, 60, 180 MG/KG/D IN DIET FOR 2 YR (STUDY DURATION: 2 YR)
  carcinogen call: inactive; negative
Species: RAT, Strain/Sex: SPRAGUE-DAWLEY/MALE, Route: ORAL, Dose: 0, 20, 60, 180 MG/KG/D IN DIET FOR 2 YR (STUDY DURATION: 2 YR), Dose: 0, 20, 60, 180 MG/KG/D IN DIET FOR 2 YR (STUDY DURATION: 2 YR)
  carcinogen call: inactive; negative

## Nc1ccc(N)cc1
Species: MOUSE, Strain/Sex: B6C3F1/FEMALE, Route: ORAL, Dose: 0, 625, 1250 PPM IN DIET, Dose: 0, 625, 1250 PPM IN DIET
  carcinogen call: inactive; negative
Species: MOUSE, Strain/Sex: B6C3F1/MALE, Route: ORAL, Dose: 0, 625, 1250 PPM IN DIET, Dose: 0, 625, 1250 PPM IN DIET
  carcinogen call: inactive; negative
Species: RAT, Strain/Sex: F344/FEMALE, Route: ORAL, Dose: 0, 625, 1250 PPM IN DIET, Dose: 0, 625, 1250 PPM IN DIET
  carcinogen call: inactive; negative
Species: RAT, Strain/Sex: F344/MALE, Route: ORAL, Dose: 0, 625, 1250 PPM IN DIET, Dose: 0, 625, 1250 PPM IN DIET
  carcinogen call: inactive; negative

## FCC(F)(F)F
Species: MOUSE, Strain/Sex: B6C3F1/FEMALE, Route: INHALATION, Dose: 0, 2500, 15000, 75000 PPM SNOUT-ONLY INHALATION 1 HR/D FOR AT LEAST 104 WK (STUDY DURATION: 106 WK), Dose: 0, 2500, 15000, 75000 PPM SNOUT-ONLY INHALATION 1 HR/D FOR AT LEAST 104 WK (STUDY DURATION: 106 WK)
  carcinogen call: inactive; negative
Species: MOUSE, Strain/Sex: B6C3F1/MALE, Route: INHALATION, Dose: 0, 2500, 15000, 75000 PPM SNOUT-ONLY INHALATION 1 HR/D FOR AT LEAST 104 WK (STUDY DURATION: 106 WK), Dose: 0, 2500, 15000, 75000 PPM SNOUT-ONLY INHALATION 1 HR/D FOR AT LEAST 104 WK (STUDY DURATION: 106 WK)
  carcinogen call: inactive; negative
Species: RAT, Strain/Sex: ALPK:APFSD/FEMALE, Route: INHALATION, Dose: 0, 2500, 10000, 50000 PPM 6 HR/D 5 D/WK FOR 104 WK (STUDY DURATION: 104 WK), Dose: 0, 2500, 10000, 50000 PPM 6 HR/D 5 D/WK FOR 104 WK (STUDY DURATION: 104 WK)
  carcinogen call: inactive; negative
Species: RAT, Strain/Sex: ALPK:APFSD/MALE, Route: INHALATION, Dose: 0, 2500, 10000, 50000 PPM 6 HR/D 5 D/WK FOR 104 WK (STUDY DURATION: 104 WK), Dose: 0, 2500, 10000, 50000 PPM 6 HR/D 5 D/WK FOR 104 WK (STUDY DURATION: 104 WK), Tumor Site: Type of Lesion: TESTES: LEYDIG CELL ADENOMA
  carcinogen call: active; positive
Species: RAT, Strain/Sex: WISTAR/FEMALE, Route: INHALATION, Dose: 0, 2500, 10000, 50000 PPM SNOUT-ONLY INHALATION 1 HR/D FOR AT LEAST 108 WK (STUDY DURATION: 110 WK), Dose: 0, 2500, 10000, 50000 PPM SNOUT-ONLY INHALATION 1 HR/D FOR AT LEAST 108 WK (STUDY DURATION: 110 WK)
  carcinogen call: inactive; negative
Species: RAT, Strain/Sex: WISTAR/MALE, Route: INHALATION, Dose: 0, 2500, 10000, 50000 PPM SNOUT-ONLY INHALATION 1 HR/D FOR AT LEAST 108 WK (STUDY DURATION: 110 WK), Dose: 0, 2500, 10000, 50000 PPM SNOUT-ONLY INHALATION 1 HR/D FOR AT LEAST 108 WK (STUDY DURATION: 110 WK)
  carcinogen call: inactive; negative

## CO[C@@H]1[C@@H](O[C@@H]2O[C@H](C)[C@@H](O[C@H]3C[C@@](C)(O)[C@@H](OC(=O)CC(C)C)[C@H](C)O3)[C@H](N(C)C)[C@H]2O)[C@@H](CC=O)C[C@@H](C)[C@@H](O)/C=C/C=C/C[C@@H](C)OC(=O)C[C@H]1OC(C)=O
Species: RAT, Strain/Sex: F344/FEMALE, Route: ORAL, Dose: 0, 1.25, 2.5% IN DIET FOR 104 WK (STUDY DURATION: 106 WK), Dose: 0, 1.25, 2.5% IN DIET FOR 104 WK (STUDY DURATION: 106 WK)
  carcinogen call: inactive; negative
Species: RAT, Strain/Sex: F344/MALE, Route: ORAL, Dose: 0, 1.25, 2.5% IN DIET FOR 104 WK (STUDY DURATION: 106 WK)
  carcinogen call: inactive; negative

## O=[N+]([O-])c1ccc2ccc3cc4ccccc4c4ccc1c2c34
Species: MOUSE, Strain/Sex: B6C3F1/MALE, Route: INTRAPERITONEAL, Dose: 0, 400 NMOL IN 35 µL DMSO ON DAYS 1 (1/7 TOTAL DOSE), 8 (2/7 TOTAL DOSE), AND 15 (4/7 TOTAL DOSE) AFTER BIRTH (STUDY DUR
  carcinogen call: inactive; negative
Species: RAT, Strain/Sex: F344/MALE, Route: SUBCUTANEOUS, Dose: 0, 500, 1000 UG SUSPENDED IN BEESWAX/TRICAPRYLIN (1:1) ONCE (STUDY DURATION: LIFETIME), Dose: 0, 500, 1000 UG SUSPENDED IN BEESWAX/TRICAPRYLIN (1:1) ONCE (STUDY DURATION: LIFETIME)
  carcinogen call: inactive; negative
